The values below come from ChEMBL document CHEMBL5120752, “Galangin 3-benzyl-5-methylether derivatives function as an adiponectin synthesis-promoting peroxisome proliferator-activated receptor γ partial agonist” (Bioorg Med Chem, 2022).

In assay [1] the test system is Mesenchymal stem cells. Briefly: Induction of adiponectin synthesis in human differentiated BMMSC cells at 10 uM measured after 5 days in the presence of IDX induction medium by ELISA. The settings on record: time 5.0 day. Type of assay: functional, cell-based. (An ELISA detects its analyte on a solid surface through an enzyme-linked reagent.)
For assay [2], the system named is Mesenchymal stem cells. Briefly: Induction of adiponectin synthesis in human differentiated BMMSC cells assessed as fold increase in adiponectin level at 10 uM measured after 5 days in the presence of IDX induction medium by ELISA. The class given is functional. The settings on record: time 5 day.
The test system of assay [3] is Mesenchymal stem cells. Briefly: Upregulation of adiponectin mRNA expression in human BMMSC cells at 10 uM measured after 3 days by qRT-PCR analysis. The class given is functional, cell-based. The settings on record: time 3.0 day. (In general: Quantitative PCR measures a nucleic acid by following its amplification.)
Assay [4] has as its system Mesenchymal stem cells. Briefly: Upregulation of FABP4 mRNA expression in human BMMSC cells at 10 uM measured after 3 days by qRT-PCR analysis. The class given is functional, cell-based. The settings on record: time 3.0 day.
Assay [5] relates to Mesenchymal stem cells. Briefly: Upregulation of PPARgamma mRNA expression in human BMMSC cells at 10 uM measured after 3 days by qRT-PCR analysis. Type of assay: functional, cell-based. The settings on record: time 3.0 day.
Assay [6] has as its system Mesenchymal stem cells. Briefly: Induction of adiponectin synthesis in human differentiated BMMSC cells assessed as lipid accumulation at 10 uM measured after 5 days in the presence of IDX induction medium by Oil red O staining based inverted phase contrast microscope analysis. Type of assay: functional, cell-based. As to conditions: time 5.0 day.
The test system of assay [7] is Mesenchymal stem cells. Briefly: Induction of adiponectin synthesis in human differentiated BMMSC cells measured after 5 days in the presence of IDX induction medium by ELISA. The class given is functional, cell-based. As to conditions: 120 h.
Assay [8] deals with Estrogen receptor beta (Homo sapiens) (UniProt Q92731). Briefly: Binding affinity to ERbeta (unknown origin) at 10 uM by Lanthascreen TR-FRET assay relative to control. For orientation: TR-FRET usually uses a lanthanide donor and a delayed reading to cut background.
The target in assay [9] is T1, Peroxisome proliferator-activated receptor gamma (Homo sapiens, UniProt P37231).
T1 sequence (P37231 whole entry): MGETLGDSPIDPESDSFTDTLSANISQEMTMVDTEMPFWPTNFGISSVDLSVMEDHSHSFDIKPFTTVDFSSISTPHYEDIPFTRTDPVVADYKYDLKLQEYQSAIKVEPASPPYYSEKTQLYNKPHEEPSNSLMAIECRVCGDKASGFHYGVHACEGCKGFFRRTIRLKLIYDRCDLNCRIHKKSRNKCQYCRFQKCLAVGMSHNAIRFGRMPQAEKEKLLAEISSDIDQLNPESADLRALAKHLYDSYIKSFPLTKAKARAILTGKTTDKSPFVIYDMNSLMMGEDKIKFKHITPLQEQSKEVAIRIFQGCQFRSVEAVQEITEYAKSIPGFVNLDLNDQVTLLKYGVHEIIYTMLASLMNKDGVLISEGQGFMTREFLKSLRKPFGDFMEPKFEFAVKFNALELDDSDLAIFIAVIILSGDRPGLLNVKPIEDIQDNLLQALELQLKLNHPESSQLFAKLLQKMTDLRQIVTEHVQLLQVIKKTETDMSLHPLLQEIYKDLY
Briefly: Binding affinity to PPARgamma (unknown origin) assessed as inhibition constant by Lanthascreen TR-FRET assay relative to control.

Calls of active or inactive are those of the source. No cut-off for these calls is given here.

What is called EC50 is the concentration needed to bring the measured effect to its halfway point. As a reminder, the Ki is the equilibrium dissociation constant of an inhibitor or competing ligand from its target.

Chain of Estrogen receptor beta (Homo sapiens) (Q92731 whole entry): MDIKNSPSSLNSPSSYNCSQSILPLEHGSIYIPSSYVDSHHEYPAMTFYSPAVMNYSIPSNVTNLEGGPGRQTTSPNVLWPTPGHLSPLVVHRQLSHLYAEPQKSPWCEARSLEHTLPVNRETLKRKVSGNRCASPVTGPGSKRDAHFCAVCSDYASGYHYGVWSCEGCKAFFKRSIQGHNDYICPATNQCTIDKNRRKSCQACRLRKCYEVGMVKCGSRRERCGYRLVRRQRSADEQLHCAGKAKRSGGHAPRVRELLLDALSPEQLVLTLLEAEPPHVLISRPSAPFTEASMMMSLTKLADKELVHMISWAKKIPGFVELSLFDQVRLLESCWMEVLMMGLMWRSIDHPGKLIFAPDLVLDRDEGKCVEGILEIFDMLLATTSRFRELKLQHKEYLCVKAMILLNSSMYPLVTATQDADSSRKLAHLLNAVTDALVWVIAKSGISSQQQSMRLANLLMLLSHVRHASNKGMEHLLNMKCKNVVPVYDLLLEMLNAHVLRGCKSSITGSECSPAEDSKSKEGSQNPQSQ

In the case of `COc1cc(OC(=O)c2ccccc2)cc2oc(-c3ccccc3)c(OCc3ccccc3)c(=O)c12`, the outcome in [1] was Active. Further, the “fold change (FC)” value in [2] is given as 2.76.
Take `COc1cc(OC)c2c(=O)c(OCc3ccccc3)c(-c3ccccc3)oc2c1`: the result in assay [3], in [4], in assay [5], in assay [6] and in [1] was Active.
For the compound `COc1cc(O)c2c(=O)c(OCc3ccccc3)c(-c3ccccc3)oc2c1`, in [1], the outcome was Active.
For `COc1cc(O)cc2oc(-c3ccccc3)c(OCc3ccccc3)c(=O)c12`, the outcome in assay [3], in assay [4], in assay [5], in assay [6] and in assay [1] was Active. The “fold change (FC)” value in [2] amounted to 2.88. In addition, in assay [7], the EC50 was 14.9 µM.
Consider `COc1cc(OC(=O)c2ccccc2)cc2oc(-c3ccccc3)c(O)c(=O)c12`, for which the result in assay [1] was Active.
Consider `O=c1c(O)c(-c2ccccc2)oc2cc(O)cc(O)c12` [GALANGIN], for which the outcome in assay [3], in assay [4], in assay [5], in assay [6] and in assay [1] was Active. In addition, in [8], the Activity was found to be 79.4%. The Ki in [9] came out at 5.6 µM.
